Laboratory results from ChEMBL document CHEMBL1201862, “PubChem BioAssay data set” (2004).
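Where inhibition never reached the appropriate level, the endpoint shown equals the highest concentration tested. Otherwise, values were interpolated linearly from a five-concentration, 48-hour dose response in 96-well plates. GI50 is the concentration that inhibits growth by half.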 Activity calls are given as the source filed them. Cut-off read from the data, not from the text of the source: active = GI50 up to about 1.1 µM and inactive = higher.

Key:
Assay in all cases: NCI tumour cell line growth inhibition, 48 h
HOP-18 = tested on: HOP-18
DMS-114 = tested on: DMS-114
LXFL 529 = tested on: LXFL 529
M19-MEL = tested on: M19-MEL
RXF 631 = tested on: RXF 631
DMS-273 = tested on: DMS-273
SNB-78 = tested on: SNB-78
DLD-1 = tested on: DLD-1
BT-549 = tested on: BT-549

SMILES	GI50 (HOP-18)	GI50 (DMS-114)	GI50 (LXFL 529)	GI50 (M19-MEL)	GI50 (RXF 631)	GI50 (DMS-273)	GI50 (SNB-78)	GI50 (DLD-1)	GI50 (BT-549)
COc1cc2c(cc1OC)C(Cl)C(c1ccc(Cl)cc1)=C2Cl (stereo not given)	15.9 µM (inactive)	11.9 µM (inactive)	4.23 µM (inactive)	17.1 µM (inactive)	21.3 µM (inactive)	17.7 µM (inactive)	13 µM (inactive)	16.3 µM (inactive)	
O=C(CCc1nnc(S)[nH]1)Nc1cccc(C(F)(F)F)c1	> 100 µM (inactive)	> 100 µM (inactive)	> 100 µM (inactive)			> 100 µM (inactive)	> 100 µM (inactive)	> 100 µM (inactive)	
C=C(C(=C)P(=S)(c1ccccc1)c1ccccc1)P(=S)(c1ccccc1)c1ccccc1	> 100 µM (inactive)	35.2 µM (inactive)	> 100 µM (inactive)	> 100 µM (inactive)		> 100 µM (inactive)	> 100 µM (inactive)		
Cc1cc(NS(=O)(=O)c2ccc(NC(=O)c3cccc4cc5ccccc5nc34)cc2)no1		18.3 µM (inactive)	15.8 µM (inactive)	16.6 µM (inactive)	17.7 µM (inactive)	13.8 µM (inactive)	29.9 µM (inactive)	19.9 µM (inactive)	
COC(c1cccc(C(O)(C(F)(F)F)C(F)(F)F)c1)(C(F)(F)F)C(F)(F)F	18.2 µM (inactive)	18.6 µM (inactive)	17.5 µM (inactive)	16.1 µM (inactive)		19.3 µM (inactive)		20.3 µM (inactive)	
O=C1NP23(OCCO2)Oc2ccccc2C3(C(F)(F)F)O1 (stereo not given)	> 100 µM (inactive)	> 100 µM (inactive)	> 100 µM (inactive)	> 100 µM (inactive)		> 100 µM (inactive)	> 100 µM (inactive)	> 100 µM (inactive)	
CC(=O)Nc1ccc(C(=O)NN2C(=O)C(Cl)C2c2cc(Br)cc(Br)c2O)cc1 (stereo not given)	> 100 µM (inactive)	> 100 µM (inactive)	> 100 µM (inactive)	> 100 µM (inactive)		> 100 µM (inactive)		> 100 µM (inactive)	
CC(O)/C=C/C(CCC(C)CO)C(C)C (stereo not given)		> 100 µM (inactive)	> 100 µM (inactive)	> 100 µM (inactive)	> 100 µM (inactive)	> 100 µM (inactive)	> 100 µM (inactive)	> 100 µM (inactive)	
C[n+]1ccn2c3nc4ccccc4nc3c([O-])c(C#N)c21	84.7 µM (inactive)	> 100 µM (inactive)	> 100 µM (inactive)	< 0.01 µM (active)		> 100 µM (inactive)	> 100 µM (inactive)	< 0.01 µM (active)	> 100 µM (inactive)
Cc1ccccc1NC(=O)CSc1nnc(-c2ccc(/N=C\c3ccc(Cl)cc3)cc2)o1	> 100 µM (inactive)	> 100 µM (inactive)	> 100 µM (inactive)	> 100 µM (inactive)		> 100 µM (inactive)	> 100 µM (inactive)		
C=C1CC(OC)(C(O)C(=O)N[C@H]2OCO[C@H]3C2O[C@H](C[C@H](O)COC)C(C)(C)C3OC)O[C@H](C)[C@@H]1C (stereo not given in full)	< 0.00773 µM (active)	< 0.00773 µM (active)		< 0.00773 µM (active)		< 0.00773 µM (active)	< 0.00773 µM (active)	< 0.00773 µM (active)	
CCC(COC(=O)CC[C@@H](NC(=O)C(C)NC(=O)C(C)OC1C(O)C(CO)OC(OCc2ccccc2)C1NC(C)=O)C(N)=O)NC1c2ccccc2Nc2cccc([N+](=O)[O-])c21 (stereo not given in full)	69.2 µM (inactive)	> 100 µM (inactive)	41.8 µM (inactive)	> 100 µM (inactive)		> 100 µM (inactive)	> 100 µM (inactive)	> 100 µM (inactive)	
CCCCC#C[I+]c1ccccc1	14.5 µM (inactive)		12.2 µM (inactive)	15.7 µM (inactive)	9.71 µM (inactive)	14.1 µM (inactive)	21.8 µM (inactive)	19.5 µM (inactive)	
Cn1c(=O)nc2n(-c3ccc(Br)cc3)c3ccccc3nc-2c1=O	5.6 µM (inactive)	2 µM (inactive)	12.2 µM (inactive)	1.49 µM (inactive)	4.11 µM (inactive)	1.88 µM (inactive)	14 µM (inactive)	4.05 µM (inactive)	
